# Test results reported in ChEMBL document CHEMBL5352470, “RS6077 induces mitotic arrest and selectively activates cell death in human cancer cell lines and in a lymphoma tumor in vivo” (Eur J Med Chem, 2023).
# Activity calls are given as the source filed them. The calls are words filed in the database; no cut-off is given here.
# What was measured:
# [1] = Metabolic stability in human liver microsome assessed as half life measured upto 60 mins by LC-MS/MS analysis; format: ADME; conditions: liver microsomes
# [2] = Metabolic stability in mouse liver microsome assessed as half life measured upto 60 mins by LC-MS/MS analysis; format: ADME; conditions: liver microsomes
# AHH-1 [3] = assay: Induction of cell cycle arrest in human AHH-1 cells assessed as accumulation of cells at G1 phase at 1000 nM incubated for 72 hrs by annexin V-FITC and PI staining based flow cytometry analysis; format: functional
# AHH-1 [4] = assay: Induction of cell cycle arrest in human AHH-1 cells assessed as accumulation of cells at G2/M phase at 2500 nM incubated for 72 hrs by annexin V-FITC and PI staining based flow cytometry analysis; format: functional
# TERT-RPE1 [5] = assay: Induction of cell cycle arrest in human TERT-RPE1 cells assessed as accumulation of cells at G1 phase at 2500 nM incubated for 72 hrs by annexin V-FITC and PI staining based flow cytometry analysis; format: functional
# HeLa [6] = assay: Induction of cell cycle arrest in human HeLa cells assessed as accumulation of cells at sub-G1 phase incubated for 72 hrs by annexin V-FITC and PI staining based flow cytometry analysis; format: functional
# Maver1 = assay: Antiproliferative activity against human MAVER-1 cells assessed as inhibition of cell growth measured for 72 hrs by MTT assay; format: functional, cell-based; conditions: Maver1, 72 h
# U2932 = assay: Antiproliferative activity against human U2932 cells assessed as inhibition of cell growth measured for 72 hrs by MTT assay; format: functional, cell-based; conditions: U2932, 72 h
# AHH-1 [7] = assay: Induction of cell cycle arrest in human AHH-1 cells assessed as accumulation of cells at S phase at 2500 nM incubated for 72 hrs by annexin V-FITC and PI staining based flow cytometry analysis; format: functional
# TERT-RPE1 [8] = assay: Induction of cell cycle arrest in human TERT-RPE1 cells assessed as accumulation of cells at S phase at 100 nM incubated for 72 hrs by annexin V-FITC and PI staining based flow cytometry analysis; format: functional
# HeLa [9] = assay: Induction of cell cycle arrest in human HeLa cells assessed as accumulation of cells at G1 phase at 2500 nM incubated for 72 hrs by annexin V-FITC and PI staining based flow cytometry analysis; format: functional
# HeLa [10] = assay: Induction of cell cycle arrest in human HeLa cells assessed as accumulation of cells at S phase at 100 nM incubated for 72 hrs by annexin V-FITC and PI staining based flow cytometry analysis; format: functional
# HeLa [11] = assay: Induction of cell cycle arrest in human HeLa cells assessed as accumulation of cells at G2/M phase at 1000 nM incubated for 72 hrs by annexin V-FITC and PI staining based flow cytometry analysis; format: functional
# KARPAS-422 = assay: Antiproliferative activity against human KARPAS-422 cells assessed as inhibition of cell growth measured for 72 hrs by MTT assay; format: functional, cell-based; conditions: KARPAS-422, 72 h
# TERT-RPE1 [12] = assay: Induction of cell cycle arrest in human TERT-RPE1 cells assessed as accumulation of cells at S phase at 2500 nM incubated for 72 hrs by annexin V-FITC and PI staining based flow cytometry analysis; format: functional
# Z-138 = assay: Antiproliferative activity against human Z138 cells assessed as inhibition of cell growth measured for 72 hrs by MTT assay; format: functional, cell-based; conditions: Z-138, 72 h
# TERT-RPE1 [13] = assay: Induction of cell cycle arrest in human TERT-RPE1 cells assessed as accumulation of cells at S phase at 1000 nM incubated for 72 hrs by annexin V-FITC and PI staining based flow cytometry analysis; format: functional
# HeLa [14] = assay: Induction of cell cycle arrest in human HeLa cells assessed as accumulation of cells at S phase at 2500 nM incubated for 72 hrs by annexin V-FITC and PI staining based flow cytometry analysis; format: functional
# AHH-1 [15] = assay: Induction of cell cycle arrest in human AHH-1 cells assessed as accumulation of cells at G2/M phase at 100 nM incubated for 72 hrs by annexin V-FITC and PI staining based flow cytometry analysis; format: functional
# AHH-1 [16] = assay: Induction of apoptosis in human AHH-1 cells at 100 to 2500 nM measured after 72 hrs by annexin V-FITC and PI staining based flow cytometry analysis; format: functional, cell-based; conditions: dose 100-2500 nM
# AHH-1 [17] = assay: Induction of cell cycle arrest in human AHH-1 cells assessed as accumulation of cells at sub-G1 phase incubated for 72 hrs by annexin V-FITC and PI staining based flow cytometry analysis; format: functional
# TMD8 = assay: Antiproliferative activity against human TMD8 cells assessed as inhibition of cell growth measured for 72 hrs by MTT assay; format: functional, cell-based; conditions: TMD8, 72 h
# HeLa [18] = assay: Induction of cell cycle arrest in human HeLa cells assessed as accumulation of cells at G2/M phase at 100 nM incubated for 72 hrs by annexin V-FITC and PI staining based flow cytometry analysis; format: functional
# HeLa [19] = assay: Induction of cell cycle arrest in human HeLa cells assessed as accumulation of cells at G2/M phase at 2500 nM incubated for 72 hrs by annexin V-FITC and PI staining based flow cytometry analysis; format: functional
# AHH-1 [20] = assay: Induction of cell cycle arrest in human AHH-1 cells assessed as accumulation of cells at G1 phase at 2500 nM incubated for 72 hrs by annexin V-FITC and PI staining based flow cytometry analysis; format: functional
# TERT-RPE1 [21] = assay: Induction of cell cycle arrest in human TERT-RPE1 cells assessed as accumulation of cells at G1 phase at 100 nM incubated for 72 hrs by annexin V-FITC and PI staining based flow cytometry analysis; format: functional
# TERT-RPE1 [22] = assay: Induction of cell cycle arrest in human TERT-RPE1 cells assessed as accumulation of cells at G2/M phase at 100 nM incubated for 72 hrs by annexin V-FITC and PI staining based flow cytometry analysis; format: functional
# Farage = assay: Antiproliferative activity against human Farage cells assessed as inhibition of cell growth measured for 72 hrs by MTT assay; format: functional, cell-based
# TERT-RPE1 [23] = assay: Induction of cell cycle arrest in human TERT-RPE1 cells assessed as accumulation of cells at G2/M phase at 2500 nM incubated for 72 hrs by annexin V-FITC and PI staining based flow cytometry analysis; format: functional
# HeLa [24] = assay: Induction of cell cycle arrest in human HeLa cells assessed as accumulation of cells at S phase at 1000 nM incubated for 72 hrs by annexin V-FITC and PI staining based flow cytometry analysis; format: functional
# TERT-RPE1 [25] = assay: Induction of cell cycle arrest in human TERT-RPE1 cells assessed as accumulation of cells at G1 phase at 1000 nM incubated for 72 hrs by annexin V-FITC and PI staining based flow cytometry analysis; format: functional
# AHH-1 [26] = assay: Induction of cell cycle arrest in human AHH-1 cells assessed as accumulation of cells at S phase at 100 nM incubated for 72 hrs by annexin V-FITC and PI staining based flow cytometry analysis; format: functional
# AHH-1 [27] = assay: Induction of cell cycle arrest in human AHH-1 cells assessed as accumulation of cells at G2/M phase at 1000 nM incubated for 72 hrs by annexin V-FITC and PI staining based flow cytometry analysis; format: functional
# TERT-RPE1 [28] = assay: Induction of cell cycle arrest in human TERT-RPE1 cells assessed as accumulation of cells at G2/M phase at 1000 nM incubated for 72 hrs by annexin V-FITC and PI staining based flow cytometry analysis; format: functional
# HeLa [29] = assay: Induction of cell cycle arrest in human HeLa cells assessed as accumulation of cells at G1 phase at 100 nM incubated for 72 hrs by annexin V-FITC and PI staining based flow cytometry analysis; format: functional
# HeLa [30] = assay: Induction of cell cycle arrest in human HeLa cells assessed as accumulation of cells at G1 phase at 1000 nM incubated for 72 hrs by annexin V-FITC and PI staining based flow cytometry analysis; format: functional
# AHH-1 [31] = assay: Induction of cell cycle arrest in human AHH-1 cells assessed as accumulation of cells at S phase at 1000 nM incubated for 72 hrs by annexin V-FITC and PI staining based flow cytometry analysis; format: functional
# AHH-1 [32] = assay: Induction of cell cycle arrest in human AHH-1 cells assessed as accumulation of cells at G1 phase at 100 nM incubated for 72 hrs by annexin V-FITC and PI staining based flow cytometry analysis; format: functional
smiles,measurement,setting,value
CC(C)NCC(O)COc1cccc2ccccc12 (stereo not given) [PROPRANOLOL],half-life,[1],47 min
same,half-life,[2],11.8 min
CCOc1ccc2ccc(=O)oc2c1 [ETHOXYCOUMARIN],half-life,[1],8.3 min
same,half-life,[2],3.3 min
COc1ccc(/C=C\c2cc(OC)c(OC)c(OC)c2)cc1O [COMBRETASTATIN A4],Activity,AHH-1 [3],7.8%
same,Activity,AHH-1 [4],74.1%
same,Activity,TERT-RPE1 [5],19%
same,Activity,HeLa [6],Active
same,IC50,Maver1,4600 pM
same,IC50,U2932,890 pM
same,Activity,AHH-1 [7],10.3%
same,Activity,TERT-RPE1 [8],9%
same,Activity,HeLa [9],8.8%
same,Activity,HeLa [10],15.5%
same,Activity,HeLa [11],73.1%
same,IC50,KARPAS-422,580 pM
same,Activity,TERT-RPE1 [12],5.4%
same,IC50,Z-138,780 pM
same,Activity,TERT-RPE1 [13],8.4%
same,Activity,HeLa [14],9.2%
same,Activity,AHH-1 [15],74.5%
same,Activity,AHH-1 [16],Active
same,Activity,AHH-1 [17],Active
same,IC50,TMD8,660 pM
same,Activity,HeLa [18],61.1%
same,Activity,HeLa [19],75.2%
same,Activity,AHH-1 [20],7%
same,Activity,TERT-RPE1 [21],23%
same,Activity,TERT-RPE1 [22],68%
same,IC50,Farage,700 pM
same,Activity,TERT-RPE1 [23],73%
same,Activity,HeLa [24],16.8%
same,Activity,TERT-RPE1 [25],17.1%
same,Activity,AHH-1 [26],17%
same,Activity,AHH-1 [27],78.8%
same,Activity,TERT-RPE1 [28],74.6%
same,Activity,HeLa [29],23.4%
same,Activity,HeLa [30],10.1%
same,Activity,AHH-1 [31],13.4%
same,Activity,AHH-1 [32],8.6%
